Results published in patent US20240376108A1, “SALT AND CRYSTAL FORM OF PYRAZOLE-CONTAINING POLYCYCLIC DERIVATIVE, AND PREPARATION METHOD THEREFOR AND USE THEREOF” (Shanghai Hansoh Biomedical Co., Ltd., priority 2021, published 2024).

Assays:
[1] = Metabolic stability in liver microsome (mouse); type: in vitro ADME
Protocol: (§1) Test Example 5. Assay of Metabolic Stability in Liver Microsome
(§2) 1. Experimental objective: The objective of the experiment is to determine the stability of the compounds of the Examples in liver microsome of mouse, rat, dog and human.
(§3) 2.1 Formulation of the working solution of the compound: Formulation of the working solution of the compound: The stock solution of the compound was added to phosphate buffer, and the final concentration was 20 μM.
(§4) 2.2 Formulation of the working solution of liver microsome: Liver microsome was diluted with 100 mM phosphate buffer to obtain a final concentration of 0.625 mg/mL.
(§5) 2.3 Formulation of NADPH and UDPGA: NADPH (reduced nicotinamide adenine dinucleotide phosphate) and UDPGA (uridine diphosphate glucuronic acid) were weighed respectively, followed by addition of 100 mM phosphate buffer. The final concentrations were 20 mM.
(§6) 2.4 Formulation of the channel-forming reagent: 1 mg of Alamethicin was weighed, to which 200 μL of DMSO was added to obtain a 5 mg/mL solution. The solution was diluted with phosphate buffer to obtain a final concentration of 50 μg/mL.
(§7) 2.5 Formulation of the reaction stop solution: Stop solution: Cold acetonitrile containing 100 ng/mL labetalol hydrochloride and 400 ng/mL tolbutamide as internal standards.
(§8) 2.6 Incubation procedure: 400 μL of the prepared liver microsome, 25 μL of the working solution of the compound and 25 μL of Alamethicin were added to a 96-well plate successively, which was then pre-incubated at 37° C. for 10 minutes. 50 μL of the prepared NADPH/UDPGA was added to initiate the reaction, and the plate was incubated at 37° C. The total volume of the reaction system was 500 μL. The final contents of the components were as follows:
(§9) 2.7.1 Chromatographic conditions: • Instrument: Shimadzu LC-30 AD; Chromatographic column: XBridge® C18 (50*4.6 mm, particle size: 5 μm); • Mobile phase: A: 0.1% formic acid solution, B: methanol • Eluent gradient: 0.2˜1.6 min 5% A to 95% A, 3.0˜3.1 min 95% A to 5% A • Running time: 4.0 min.
(§10) 2.7.2 Mass spectrometry conditions: • Instrument: API5500 liquid chromatography-mass spectrometer, AB Sciex; • Ion source: Electrospray ionization source (ESI); Drying gas: N2, temperature: 500° C.; • Electrospray voltage: 5000V; Detection method: Positive ion detection; • Scanning mode: Mode of reaction monitoring (MRM).

[2] = Metabolic stability in liver microsome (rat); type: in vitro ADME; settings: for Rat Remaining (%, 60 min): rat liver microsome
Protocol: as §1, §2, §3, §4, §5, §6, §7, §8, §9, §10

[3] = Metabolic stability in liver microsome (dog); type: in vitro ADME; settings: for Dog Remaining (%, 60 min): dog liver microsome
Protocol: as §1, §2, §3, §4, §5, §6, §7, §8, §9, §10

[4] = Metabolic stability in liver microsome (human); type: in vitro ADME; settings: for Human Remaining (%, 60 min): human liver microsome
Protocol: as §1, §2, §3, §4, §5, §6, §7, §8, §9, §10

BALB/c mice = test: Taste sensitivity assay in BALB/c mice (quinine solution intake); type: in vivo; settings: 30 mpk; for Solution consumption of single mouse, Quinine solution: 3 mmol/L quinine hydrochloride, 30 min
Excerpt: Test Example 9. Taste Sensitivity Assay in BALB/c Mice
1. Experimental objective: In this assay, compounds with less toxic and side effects on animal taste were screened by quinine bitter solution experiment.
2.2 Reagents: Quinine monohydrochloride dihydrate (6119-47-7, Adamas).
2.3 Animals: BALB/c mice, 6 to 8 weeks old, ♂, purchased from Shanghai SIPPR-BK Laboratory Animal Co., Ltd.
3.1 Animal screening: One day before the experiment, all BALB/c mice were weighed, and animals with too high or too low body weight were excluded.
3.2 Grouping and water deprivation: BALB/c mice were randomly grouped according to body weight, and were deprived of water 12 to 16 hours before administration with no fasting.
3.3 Formulation of aqueous solution of quinine: An appropriate amount of quinine monohydrochloride dihydrate was weighed and formulated into an aqueous solution quinine hydrochloride (concentration: 3 mmol/L) with ultrapure water for later use.
3.4 Formulation of test compound: An appropriate amount of the test compound was weighed and formulated into the target concentration with the corresponding solvent according to the experimental design for later use.
3.5 Administration and quinine solution intake assay in animal: Administration and fasting: On the day of the experiment, the animals were weighed and fasted, bedding was changed, and the compounds were administered according to the experimental design.
1. The corresponding clean mouse drinking bottle was rinsed 2 to 3 times with ultrapure water and the formulated 3 mmol/L aqueous solution of quinine hydrochloride respectively. The bottle was filled and weighed, and the weight was recorded as Wi0.
2. According to the experimental design, a certain period after administration, the filled bottle was gently placed in the corresponding mouse cage, and the timing was started. After 30 min, the bottle was gently taken out and weighed, and the weight was recorded as Wi30.
3. Calculation of solution consumption of animals in each group: ΔWW(g)=[…]; calculation of solution consumption of single mouse: ΔpWW(g)=ΔWW/N, N is the number of animals in each group.
4. Dysgeusia rate=(ΔpWW of the group in which the drinking water was the aqueous solution of quinine hydrochloride and the test compound was administered at the same time−ΔpWW of the group in which the drinking water was the aqueous solution of quinine hydrochloride and the solvent control was administered at the same time)/(ΔpWW of the group in which the drinking water was ultrapure water and the solvent control was administered at the same time−ΔpWW of the group in which the drinking water was the aqueous solution of quinine hydrochloride and the solvent control was administered at the same time)×100%. Data processing was performed with software such as Excel.

Compound: O=C(Cn1c(=O)c2ccc(C(F)(F)F)nc2n2nc(Br)cc12)Nc1ccc(F)cn1 [Example 15, 2-(2-bromo-5-oxo-8-(trifluoromethyl)pyrazolo[1,5-a]pyrido[3,2-e]pyrimidin-4(5H)-yl)-N-(5-fluoropyridin-2-yl)acetamide]
- Mouse Remaining (%, 60 min) [1]: 92.5%
- Rat Remaining (%, 60 min) [2]: 102.3%
- Dog t1/2 ([3]; dog liver microsome 0.5 mg/mL, compound 1 μM, NADPH/UDPGA): 15.62 h
- Dog Remaining (%, 60 min) [3]: 96.0%
- Human t1/2 ([4]; human liver microsome 0.5 mg/mL, compound 1 μM, NADPH/UDPGA): ∞
- Human Remaining (%, 60 min) [4]: 100.4%
- Dysgeusia rate (BALB/c mice): −3.77%
- Solution consumption of single mouse, Quinine solution (BALB/c mice): 0.048 g

Compound: N#Cc1cc2n(CC(=O)Nc3ccc(F)cn3)c(=O)c3ccc(C(F)(F)F)nc3n2n1 [Example 17, 2-(2-Cyano-5-oxo-8-(trifluoromethyl)pyrazolo[1,5-a]pyrido[3,2-e]pyrimidin-4(5H)-yl)-N-(5-fluoropyridin-2-yl)acetamide]
- Mouse Remaining (%, 60 min) [1]: 91.6%
- Rat t1/2 ([2]; rat liver microsome 0.5 mg/mL, compound 1 μM, NADPH/UDPGA): ∞
- Rat Remaining (%, 60 min) [2]: 106.4%
- Dog Remaining (%, 60 min) [3]: 99.0%
- Human Remaining (%, 60 min) [4]: 101.2%
- Dysgeusia rate (BALB/c mice): −2.26%
- Solution consumption of single mouse, Quinine solution (BALB/c mice): 0.056 g

Compound: O=C(Cn1c(=O)c2ccc(C(F)(F)F)nc2n2nccc12)Nc1ccc(F)cn1 [Example 18, N-(5-Fluoropyridin-2-yl)-2-(5-oxo-8-(trifluoromethyl)pyrazolo[1,5-a]pyrido[3,2-e]pyrimidin-4(5H)-yl)acetamide]
- Mouse Remaining (%, 60 min) [1]: 99.3%
- Rat Remaining (%, 60 min) [2]: 98.9%
- Dog Remaining (%, 60 min) [3]: 93.4%
- Human Remaining (%, 60 min) [4]: 97.5%
- Dysgeusia rate (BALB/c mice): −9.81%
- Solution consumption of single mouse, Quinine solution (BALB/c mice): 0.016 g
